Values after ≈ are worked out from the molar mass of the structure shown.
Columns and labels:
USP9x = system: USP9x; set-up: method as in Donato, N. J., manuscript in preparation; details: cell-based assay; ref Donato, N. J., manuscript in preparation; read-out: IC50 against USP9x; cited from earlier work
[1] = Aqueous kinetic solubility; format: physicochemical
HG23 cells = assay: WST-1 cell viability assay in HG23 replicon cells; format: cell-based, human; details: 2.5 µM for 2 h, then 22 h
Method: For cell viability assays in conditions that mimicked the viral infections, RAW264.7 cells were cultured as described above and treated for 0.5 h with 5 µM WP1130 or 2.5 µM compound 9, incubated for 1 h on ice, washed three times with ice-cold PBS and incubated for an additional 8 h in presence of DMSO and WP1130 only. One and a half hours prior to the end of the experiment, the WST-1 reagent was diluted 1 in 10 in the media. For cell viability in HG23 replicon cells, DMSO and WP1130 remained on the cells for 24 h before incubation with the WST-1 reagent, whereas compound 9 was removed after a 2 h exposure and the WST-1 reagent added after an additional 22 h.

RAW264.7 cells = assay: WST-1 cell viability assay, conditions mimicking the bacterial infection protocol; format: cell-based, murine; details: 2.5 µM, 0.5 h pre-treatment, then 8 h
Method: For cell viability assays in conditions that mimicked the bacterial infection protocol, RAW264.7 cells were cultured at an initial density of 4×10^6 cells per 96-well plate. Cells were treated with 2.5 or 5 µM DUB inhibitors dissolved in DMSO for 0.5 h or 1 h or with equivalent volume of DMSO. DUB inhibitors were removed after treatment by washing three times with PBS, and cells were incubated in culture media for 6.5 h at 37°C. The WST-1 reagent (Roche, San Francisco, CA), which measures mitochondrial dehydrogenase activity, was diluted 1 in 10 in media and cells were incubated at 37°C for an additional 1.5 h. The optical density at 440 nm (OD440) and 600 nm (OD600) was determined and results were normalized to DMSO-treated cells.

L. monocytogenes [2] = assay: Bactericidal test on exponential-phase bacteria, 2 h at 4°C; format: cell-based, Listeria monocytogenes 10403S; details: concentrations up to 5 µM, exponential growth phase
Method: (§1) For bacterial growth curve in broth culture, an overnight culture of L. monocytogenes was back-diluted 1∶50 into BHI broth in the presence of 5 µM of compounds 1 to 4, 2.5 µM of compound 9 or equivalent volume of DMSO and incubated statically at 30°C for up to 8 h. At indicated time points (0, 2, 4, 6 and 8 h), a 50 µl-aliquot of bacteria was serially diluted and plated on LB agar to determine the number of CFU. To test the bactericidal properties of compound 9, an overnight culture of L. monocytogenes was back-diluted 1∶50 into BHI broth and allowed to grow at 37°C with shaking until an optical density at 600 nm (OD600) of ∼0.6–0.7 was obtained. Bacteria were then exposed to 1, 2.5 or 5 µM of compound 9 or equivalent volume of DMSO for 2 h at 4°C. After incubation, bacteria were serially diluted and plated on LB agar to determine CFU.

[3] = system: ubiquitinated proteins (DUB activity) in RAW264.7 cells; assay: Anti-ubiquitin immunoblot of RAW264.7 whole-cell lysates; format: cell-based, murine; details: 2.5 µM, uninfected RAW264.7 cells, treatment 0.5 h to 6 h
Method: RAW264.7 cells were cultured at an initial density of 4×10^6 cells per 6-well plate and allowed to adhere overnight. Macrophages were treated with 2.5 µM compound 9 for the indicated period of time. To obtain whole-cell lysates, cells were lysed in cell lysis buffer (10 mM Tris pH 8, 150 mM NaCl, 1% NP-40, 10 mM EDTA pH 8, 1 mM DTT and 1X protease inhibitors), incubated for 15 min on ice and briefly sonicated. Samples were diluted in 5X concentrated sample buffer containing β-mercaptoethanol and denatured at 95°C for 10 min. The samples were separated by SDS-PAGE on an 8% acrylamide gel and transferred to polyvinyldene fluoride membrane (PVDF, Millipore). Immunodetection was performed using an anti-ubiquitin monoclonal antibody (P4D1 clone, Santa Cruz), according to manufacturer’s instructions.

L. monocytogenes [4] = assay: L. monocytogenes intracellular growth assay in RAW264.7 macrophages; format: cell-based, Listeria monocytogenes 10403S; set-up: decrease in Listeria intracellular viability: concentration or dose not given beside the values
Method: RAW264.7 cells were cultured at an initial density of 4×10^6 cells per 24-well plate and allowed to adhere overnight. Macrophages were treated with 2.5 or 5 µM of DUB inhibitors dissolved in dimethyl sulfoxide (DMSO) for 0.5 or 1 h or with equivalent volume of DMSO (vehicle control) at 37°C. For dose-response curves, macrophages were incubated with 5, 2.5, 1 and 0.5 µM of compounds 1, 3 and 4 or 2.5, 2, 1 and 0.5 µM of compounds 2 and 9 for 0.5 h or 1 h at 37°C. DUB inhibitors were removed from cell culture prior to infection by changing the medium. Macrophages were infected with L. monocytogenes at a multiplicity of infection (MOI) of 1 for 0.5 h at 37°C. The inoculum was removed by washing infected cells three times with Dulbecco’s phosphate-buffered saline (PBS), and the cells were incubated in medium containing 10 µg/ml of gentamicin to kill extracellular bacteria for the duration of the experiment. At 8 h post-infection, cells were lysed in 1 ml 0.1% Triton X-100, serially diluted and plated on Luria-Bertani (LB) agar to enumerate the number of colony forming units (CFU). CFU were counted using the Acolyte SuperCount (Microbiology International, Frederick, MD) plate reader and software. Results were normalized to DMSO-treated cells.
Supplementary file pone.0104096.s001.tif: Figure S1 Dose-response curves for selected compounds. RAW264.7 cells were incubated with DMSO (equivalent volume) or the varying concentrations of WP1130-derivatives for 0.5 h (compounds 1, 2, 4 and 9) or 1 h (compound 3). After incubation, the medium was removed, and cells were infected at 37°C for 0.5 h at an MOI of 1 with L. monocytogenes in the absence of additional drugs. Following the 0.5 h infection, cells were washed and gentamycin (10 µg/ml) was added to kill extracellular bacteria. Intracellular bacteria were enumerated at 8 h post-infection. The data represent percent of Listeria intracellular growth compared to DMSO-treated cells from three independent experiments performed in triplicate. Non-linear regression curves were performed using the GraphPad Prism software. (TIF) Click here for additional data file.

L. monocytogenes [5] = assay: Bacterial growth curve in BHI broth culture; format: cell-based, Listeria monocytogenes 10403S; details: 2.5 µM in BHI broth
Method: as §1

CCCC(NC(=O)/C(C#N)=C/c1nc(Cl)ccc1Cl)c1ccc(OCCN2CCOCC2)cc1 (stereo not drawn) [Compound 9]
IC50 (USP9x): 1800 nM
solubility kinetic ([1]; aqueous (not further specified)): ~20 µM (≈ 10.1 µg/mL)
improvement in solubility vs WP1130 ([1]; compound 9 compared to WP1130): > 6 fold
toxicity (WST-1 viability) (HG23 cells): no toxicity
cellular toxicity (WST-1 viability) (RAW264.7 cells): little cellular toxicity
bactericidal activity (L. monocytogenes [2]): No bactericidal activity
accumulation of ubiquitinated proteins (immunoblot) [3]: ubiquitinated proteins accumulated as soon as 0.5 h
EC50 (L. monocytogenes [4]; Listeria monocytogenes, RAW264.7 pre-treated with varying concentrations, then infected (MOI 1), intracellular CFU at 8 h post-infection, non-linear regression): 1920 nM
decrease in Listeria intracellular viability (L. monocytogenes [4]; RAW264.7 pre-treated at each compound's working condition (Fig. 2B, 5B), 8 h post-infection, vs DMSO): 66.1%
Decrease intracellular listeria viability (%) (L. monocytogenes [4]; conditions of Figure 2B and Figure 5B, maximal effective drug concentration used, 8 h post-infection, vs DMSO): 66.1%
effect on overall CFU per ml by 8 h in broth culture (L. monocytogenes [5]): did not significantly affect overall CFU per ml by 8 h
effect on growth rate in axenic broth culture (L. monocytogenes [5]; up to 8 h): modest decrease in the growth rate
